# Measurements reported in patent US7101896B2, “Pharmaceutical compositions and methods for use” (Targacept, Inc., priority 1999, dated 2006).
# pKi: −log10 of the molar value.
# Biological target: CNS nicotinic receptors (Rattus norvegicus, UniProt P09483+P12390)
# Experiment: Determination of binding to relevant receptor sites
# Conditions: calculated from the IC50 values using the method of Cheng et al.; techniques of U.S. Pat. No. 5,597,919; read-out: Ki (inhibition constant, receptor binding)
# Chain of CNS nicotinic receptors (P09483 31-630): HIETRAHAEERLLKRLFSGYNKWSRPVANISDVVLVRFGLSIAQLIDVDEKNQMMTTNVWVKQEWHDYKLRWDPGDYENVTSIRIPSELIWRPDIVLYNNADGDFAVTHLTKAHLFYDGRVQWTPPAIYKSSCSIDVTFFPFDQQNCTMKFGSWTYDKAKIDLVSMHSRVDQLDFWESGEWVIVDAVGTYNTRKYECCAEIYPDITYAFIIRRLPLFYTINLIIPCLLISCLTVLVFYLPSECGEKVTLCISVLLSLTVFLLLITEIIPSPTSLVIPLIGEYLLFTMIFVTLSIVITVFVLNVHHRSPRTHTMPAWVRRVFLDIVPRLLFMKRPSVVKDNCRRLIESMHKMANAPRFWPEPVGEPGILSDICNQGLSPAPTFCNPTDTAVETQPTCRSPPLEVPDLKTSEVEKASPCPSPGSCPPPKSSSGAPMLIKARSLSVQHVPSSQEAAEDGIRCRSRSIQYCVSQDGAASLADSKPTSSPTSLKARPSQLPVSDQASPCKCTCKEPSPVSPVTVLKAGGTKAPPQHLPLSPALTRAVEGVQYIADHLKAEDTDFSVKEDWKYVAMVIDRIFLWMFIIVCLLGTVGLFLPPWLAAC
# Chain of CNS nicotinic receptors (P12390 25-500): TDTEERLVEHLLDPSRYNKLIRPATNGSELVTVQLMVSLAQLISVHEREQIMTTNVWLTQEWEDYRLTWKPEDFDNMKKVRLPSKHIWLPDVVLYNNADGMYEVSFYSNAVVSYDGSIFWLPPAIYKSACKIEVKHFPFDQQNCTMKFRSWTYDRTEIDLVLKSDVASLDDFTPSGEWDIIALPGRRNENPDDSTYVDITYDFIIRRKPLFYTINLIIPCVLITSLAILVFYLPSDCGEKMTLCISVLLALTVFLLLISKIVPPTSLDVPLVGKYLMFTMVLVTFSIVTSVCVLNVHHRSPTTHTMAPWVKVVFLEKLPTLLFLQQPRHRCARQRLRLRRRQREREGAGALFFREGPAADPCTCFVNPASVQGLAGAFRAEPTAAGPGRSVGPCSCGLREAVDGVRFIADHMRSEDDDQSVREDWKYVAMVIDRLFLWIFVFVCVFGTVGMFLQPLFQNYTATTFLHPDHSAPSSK
row,Compound,pKi
1,(S)-3-(3-pyridyloxy)-5-(pyrrolidin-2-ylethynyl)pyridine hemigalactarate [Sample No. 15],7.89
2,"(E,S)-3-cyclopentyloxy-5-(pyrrolidin-2-ylvinyl)pyridine hemigalactarate [Sample No. 19]",7.29
3,(S)-(E)-3(2-pyrrolidin-2-ylvinyl)pyridine hemigalactarate [Sample No. 2],6.51
4,(S)-3-(pyrrolidin-2-ylethynyl)-5-(tetrahydropyran-4-yloxy)pyridine hemigalactarate [Sample No. 16],8.15
5,(S)-3-isopropoxy-5-(pyrrolidin-2-ylethynyl)pyridine hemigalactarate [Sample No. 7],8.70
6,(S)-3-(4-methoxyphenoxy)-5-(pyrrolidin-2-ylethynyl)pyridine hemigalactarate [Sample No. 10],7.48
7,(S)-3-(phenoxyphenyl)-5-(pyrrolidin-2-ylethynyl)pyridine hemigalactarate [Sample No. 9],6.28

# Same assay, conditions: read-out: Ki (inhibition constant, receptor binding)
row,Compound,pKi
1,"Oc1ccc(Oc2cncc(C#C[C@@H]3CCCN3)c2)cc1 [Sample No. 11, (S)-3-(4-hydroxyphenoxy)-5-(pyrrolidin-2-ylethynyl)pyridine]",8.70
